Results on ten molecules are retold here after patent EP0344425A2, “N-[[(2,6-disubstituted)phenyl]-N'- arylalkyl] ureas as antihypercholesterolemic and antiatherosclerotic agents” (WARNER-LAMBERT COMPANY, priority 1988, dated 1989).

The target in the assay is acyl-CoA:cholesterol acyltransferase (ACAT). Kind of assay: in vitro ACAT inhibition test (formation of radio-labeled cholesterol oleate from radio-labeled oleic acid in rabbit intestinal microsomes). The format is biochemical. The note with it: tissue preparation containing rabbit intestinal microsomes; acylation of cholesterol by oleic acid; read-out: IC₅₀.

Text: The test assesses the ability of a test compound to inhibit the acylation of cholesterol by oleic acid by measuring the amount of radio-labeled cholesterol oleate formed from radio-labeled oleic acid in a tissue preparation containing rabbit intestinal microsomes.

With `CC(C)c1cccc(C(C)C)c1NC(=O)NCCc1cccc2ccccc12` [Example 10, N-[2,6-bis(1-Methylethyl)phenyl]-N′-[2-(1-naphthalenyl)ethyl]urea], the IC50 came to 41 nM.
`CCC(CC)(CNC(=O)Nc1c(C(C)C)cccc1C(C)C)c1ccccc1` [Example 2, N-[2,6-bis(1-Methylethyl)phenyl]-N′-(2-ethyl-2-phenylbutyl)urea]: the IC50 was 17 nM.
As for `CCCCC(CCCC)(CNC(=O)Nc1c(C(C)C)cccc1C(C)C)c1ccccc1` [Example 5, N-[2,6-bis(1-Methylethyl)phenyl]-N′-(2-butyl-2-phenylhexyl)urea], the IC50 was determined as 30 nM.
`CC(C)c1cccc(C(C)C)c1NC(=O)N[C@@H](C)c1cccc2ccccc12` [Example 13, [S]-N-[2,6-bis(1-Methylethyl)phenyl]-N′-[1-(1-naphthalenyl)ethyl]urea]: the IC50 worked out at 630 nM.
For `CC(C)c1cccc(C(C)C)c1NC(=O)N[C@H](C)c1cccc2ccccc12` [Example 12, [R]-N-[2,6-bis(1-Methylethyl)phenyl]-N′-[1-(1-naphthalenyl)ethyl]urea] the value was 35 nM.
For `CC(C)c1cccc(C(C)C)c1NC(=O)NCCCc1ccccc1` [Example 8, N-[2,6-bis(1-Methylethyl)phenyl]-N′-(3-phenylpropyl)urea] the value was 191 nM; for `CC(C)c1cccc(C(C)C)c1NC(=O)NCCc1ccccc1` [Example 6, N-[2,6-bis(1-Methylethyl)phenyl]-N′-(2-phenylethyl)urea], 88 nM; for `CCCC(CCC)(CNC(=O)Nc1c(C(C)C)cccc1C(C)C)c1ccccc1` [Example 1, N-[2,6-bis(1-Methylethyl)phenyl]-N′-(2-phenyl-2-propylpentyl)urea], 30 nM.
Consider `CC(C)c1cccc(C(C)C)c1NC(=O)NCC(C)c1ccccc1` (stereo not shown) [Example 7], for which the IC50 was 35 nM.
For `CC(C)c1cccc(C(C)C)c1NC(=O)NCc1cccc2ccccc12` [Example 9, N-[2,6-bis(1-Methylethyl)phenyl]-N′-[(1-naphthalenyl)methyl]urea] the value was 34 nM.
